Here are results for four molecules from patent EP0344708A2, “Composition for external application to skin” (LION CORPORATION, priority 1988, dated 1989).

One series has as its system defective wound. Put plainly: Circular defective wound in rats (weight of regenerated granulation). Type of series: in vivo, Wistar male rats. To be noted: relative to control (10% ethanol aqueous solution) = 100; Concn. 0.1 % in 10% ethanol aqueous solution, applied to wound twice a day, 1 ml per application, 5 days; granulation weight 6 days after wounding; 6 rats per group. The method, then:
Groups of Wistar male rats (SPF; each group comprising 6 animals) were anesthetized and hair was removed from the back of each rat. Then a circular defective wound having a diameter of 12 mm was formed on the skin of the back from which hair had been removed.
After forming the defective wound, an effective component was dissolved in 10% ethanol aqueous solution and applied to the wounded portion twice a day in a dose of 1 mℓ per application for 5 days successively. 6 Days after the formation of the wound, the animals were sacrificed to cut off the formed granulation from the defective portion and the weight of the granulation was determined. The relative value of the average of the measured weight with respect to that of the control was defined as an indication of the rate of healing of the defective wound. The results obtained are listed in Table IV given below (the results are expressed in the value relative to that of the control which is defined as 100).

Another series concerns incised wound. The experiment in a line: Incised wound healing in rats (tension needed to peel skin at the wound, tensile strength tester). Format: in vivo, Wistar male rats. To be noted: relative to control (physiological saline) = 100; Concn. 0.5 % in saline, subcutaneously once a day for 7 days, 0.67 ml/kg/day; tension measured 8 days after operation; 8 rats per group. The text has this: Groups of Wistar male rats (SPF; each group comprising 8 animals) were anesthetized with Nembutal® pentobarbital sodium) injection and hair was removed from the back of each rat over a wide area. After disinfecting the area with alcohol, a sharp incised wound having a length of 4 cm was mesially formed with a scalpel and it was stitched up, with Mitchell needles, at three positions at regular intervals (the Mitchell needles were removed 4 days after the operation).
After forming incised wound, an effective component was dissolved in a saline solution and administered subcutaneously once a day for 7 days successively (dose: 0.67 m ℓ/kg/day). The animals were sacrificed 8 days after the operation, the skin of the wounded part was peeled off to remove subcutis followed by preparing three pieces of the skin perpendicular to the line of the incised wound, having a width of 1 cm, per rat and determining tention (g/cm) required for peeling off each piece of the skin at the incised wound portion utilizing a tensile strength tester. The relative value of the average of the measured tension with respect to that of the control was defined as an indication of the rate of healing of the wound. The results obtained are listed in Table III given below (the results are expressed in the value relative to that of the control which is defined as 100).

Series [1] is described as follows: Stability of the compound in the used composition after the use test, HPLC. Type of series: physicochemical. Conditions: on the average, 131400 min.

For `CC(C)(COP(=O)(O)OP(=O)(O)OC[C@H]1O[C@@H](n2cnc3c(N)ncnc32)[C@H](O)[C@@H]1OP(=O)(O)O)[C@@H](O)C(=O)NCCC(=O)NCCS` [Coenzyme A ·3Na, reference compound], the “Rate of Regenerated Granulation” value in the series on defective wound came out at 119. In the series with incised wound, the “Rate of Relative Healing” value was determined as 117.
Regarding `CC(C)(COP(=O)(O)OP(=O)(O)OC[C@H]1O[C@@H](n2cnc3c(N)ncnc32)[C@H](O)[C@@H]1OP(=O)(O)O)[C@@H](O)C(=O)NCCC(=O)NCCSSCCNC(=O)CCNC(=O)[C@H](O)C(C)(C)COP(=O)(O)OP(=O)(O)OC[C@H]1O[C@@H](n2cnc3c(N)ncnc32)[C@H](O)[C@@H]1OP(=O)(O)O` [Compound I-A ·2Ca], the “rate of Compound I-A ·2Ca remaining in the milky lotion” value in series [1] (in the used milky lotion (0.05 %) after completion of the 3-month test) turned out to be 98.8%.
As to `CC(C)(COP(=O)(O)OP(=O)(O)OC[C@H]1O[C@@H](n2cnc3c(N)ncnc32)[C@H](O)[C@@H]1OP(=O)(O)O)[C@@H](O)C(=O)NCCC(=O)NCCSSCCNC(=O)CCNC(=O)[C@H](O)C(C)(C)COP(=O)(O)OP(=O)(O)OC[C@H]1O[C@@H](n2cnc3c(N)ncnc32)[C@H](O)[C@@H]1OP(=O)(O)O` [Compound I-A ·6Na], the “Rate of Regenerated Granulation” value with defective wound is 148. Also, the “rate of Compound I-A ·6Na remaining in the beauty essence” value in series [1] (in the used beauty essence (0.1 %) after completion of the 3-month test) is reported as 98.5%. Also, the “Rate of Relative Healing” value in the series with incised wound came to 126.
As for `CC(C)(COP(=O)(O)OP(=O)(O)OC[C@H]1O[C@@H](n2cnc3c(N)ncnc32)[C@H](O)[C@@H]1OP(=O)(O)O)[C@@H](O)C(=O)NCCC(=O)NCCSSCCNC(=O)CCNC(=O)[C@H](O)C(C)(C)COP(=O)(O)OP(=O)(O)OC[C@H]1O[C@@H](n2cnc3c(N)ncnc32)[C@H](O)[C@@H]1OP(=O)(O)O` [Compound I-A], the “rate of the remaining Compound I-A” value in series [1] (in the used toilet water (0.1 %) after completion of the 3-month test) is 97.8%.
